Measured values taken from PubChem BioAssay (NCI).
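These data come from cells grown in 96-well plates and exposed to compound for 48 hours at five concentrations. Here, GI50 denotes the concentration required for 50% inhibition of growth. TGI marks complete inhibition of growth.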 Where a SMILES comes first, the peptide text is derived from it. [ ]: non-standard residue; d: D form. The star is where a group is joined. ξ: configuration not given here. ξNMe2Val = CC(C)C(C(=O)*)N(C)C; NMeV = CN[CH](C(=O)O)C(C)C; NHBn = c1ccc(CN*)cc1

Experiments:
Test in all cases: NCI-60 cell line screen, 48 h
[1] = system: HS 578T breast
[2] = system: SF-295 CNS
[3] = system: OVCAR-8 ovarian
[4] = system: COLO 205 colon
[5] = system: HT29 colon
[6] = system: SK-OV-3 ovarian
[7] = system: ACHN renal
[8] = system: SNB-75 CNS
[9] = system: SK-MEL-2 melanoma
[10] = system: SW-620 colon
[11] = system: EKVX NSCLC
[12] = system: SK-MEL-5 melanoma
[13] = system: DU-145 prostate
[14] = system: SF-268 CNS
[15] = system: IGROV1 ovarian
[16] = system: PC-3 prostate
[17] = system: MALME-3M melanoma
[18] = system: MDA-MB-231 breast
[19] = system: NCI-H522 lung
[20] = system: NCI-H460 lung
[21] = system: HCT-116 colon
[22] = system: HCT-15 colon
[23] = system: T-47D breast
[24] = system: MDA-N
[25] = system: HOP-62 NSCLC
[26] = system: 786-0 renal
[27] = system: M14 melanoma
[28] = system: SN12C renal
[29] = system: A549 NSCLC
[30] = system: OVCAR-3 ovarian
[31] = system: UACC-257 melanoma
[32] = system: HOP-92 NSCLC
[33] = system: UACC-62 melanoma
[34] = system: OVCAR-4 ovarian
[35] = system: LOX IMVI melanoma
[36] = system: NCI/ADR-RES ovarian
[37] = system: UO-31 renal
[38] = system: U251 CNS
[39] = system: HL-60(TB) leukemia
[40] = system: NCI-H23 lung
[41] = system: RPMI-8226 leukemia
[42] = system: CAKI-1 renal
[43] = system: BT-549 breast
[44] = system: CCRF-CEM leukemia
[45] = system: SNB-19 CNS
[46] = system: OVCAR-5 ovarian
[47] = system: KM12 colon
[48] = system: RXF 393 renal
[49] = system: K-562 leukemia
[50] = system: MCF7 breast
[51] = system: SF-539 CNS
[52] = system: HCC-2998 colon
[53] = system: SK-MEL-28 melanoma
[54] = system: NCI-H226 lung
[55] = system: MOLT-4 leukemia
[56] = system: MDA-MB-435
[57] = system: TK-10 renal
[58] = system: SR leukemia
[59] = system: A498 renal

Compound: CC1(C)OC2C(COC(c3ccccc3)(c3ccccc3)c3ccccc3)OC(c3c[nH]c4c(N)ncnc34)C2O1 (stereo not drawn)
- TGI [1]: 28.4 µM
- TGI [2]: 7.29 µM
- TGI [3]: 21.7 µM
- TGI [4]: 23.9 µM
- TGI [5]: 7.15 µM
- TGI [6]: 17.5 µM
- TGI [7]: 13.3 µM
- TGI [8]: 19.6 µM
- TGI [9]: 29.3 µM
- TGI [10]: 14.1 µM
- TGI [11]: 21.8 µM
- TGI [12]: 3.05 µM
- TGI [13]: 18.9 µM
- TGI [14]: 21.4 µM
- TGI [15]: 17 µM
- TGI [16]: 10.5 µM
- TGI [17]: 16.8 µM
- TGI [18]: 27.4 µM
- TGI [19]: 17.8 µM
- TGI [20]: 10.5 µM
- TGI [21]: 15.9 µM
- TGI [22]: 15.2 µM
- TGI [23]: 17.2 µM
- TGI [24]: 11 µM
- TGI [25]: 16.1 µM
- TGI [26]: 4.37 µM
- TGI [27]: 9.44 µM
- TGI [28]: 15.4 µM
- TGI [29]: 13.9 µM
- TGI [30]: 9.26 µM
- TGI [31]: 17.5 µM
- TGI [32]: 18.5 µM
- TGI [33]: 4.21 µM
- TGI [34]: 23.3 µM
- TGI [35]: 3.26 µM
- TGI [36]: 29 µM

Compound: CC(C)C(NC(=O)C(C(C)C)N(C)C)C(=O)N(C)C(C(=O)N1CCCC1C(=O)N1CCCC1C(=O)NCc1ccccc1)C(C)C (stereo not drawn) (ξNMe2Val-V[NMeV]PP-NHBn; configuration not given here)
- TGI [37]: > 100 µM
- TGI [38]: 3.11 µM
- TGI [4]: 0.00016 µM
- TGI [6]: > 100 µM
- TGI [7]: > 100 µM
- TGI [39]: < 0.0001 µM
- TGI [40]: > 100 µM
- TGI [8]: 53.8 µM
- TGI [10]: > 100 µM
- GI50 [11]: < 0.0001 µM
- TGI [11]: > 100 µM
- TGI [12]: 0.000265 µM
- TGI [41]: > 100 µM
- TGI [13]: 0.0117 µM
- TGI [42]: > 100 µM
- TGI [14]: > 100 µM
- TGI [15]: > 100 µM
- TGI [17]: > 100 µM
- TGI [18]: 0.000242 µM
- TGI [43]: 0.0788 µM
- TGI [19]: 0.418 µM
- TGI [20]: 0.0227 µM
- TGI [44]: 0.00144 µM
- TGI [24]: < 0.0001 µM
- TGI [25]: > 100 µM
- TGI [26]: > 100 µM
- TGI [45]: > 100 µM
- TGI [46]: 0.206 µM
- TGI [29]: > 100 µM
- TGI [47]: < 0.0001 µM
- TGI [48]: > 100 µM
- TGI [33]: 0.0105 µM
- TGI [34]: > 100 µM
- TGI [35]: 0.000253 µM
- GI50 [36]: 0.264 µM
- TGI [36]: 7.39 µM

Compound: COc1ccc(C(=O)C#Cc2cn(C3CC(O)C(CO)O3)c(=O)[nH]c2=O)cc1 (stereo not drawn)
- TGI [37]: > 100 µM
- TGI [49]: > 100 µM
- TGI [38]: > 100 µM
- TGI [1]: > 100 µM
- TGI [2]: > 100 µM
- TGI [3]: > 100 µM
- TGI [50]: > 100 µM
- TGI [4]: > 100 µM
- TGI [5]: > 100 µM
- TGI [6]: > 100 µM
- TGI [7]: > 100 µM
- TGI [39]: > 10 µM
- TGI [40]: > 100 µM
- TGI [8]: > 100 µM
- TGI [9]: > 100 µM
- TGI [10]: > 100 µM
- TGI [11]: > 100 µM
- TGI [51]: 45.1 µM
- TGI [12]: > 100 µM
- TGI [41]: > 100 µM
- TGI [13]: > 100 µM
- TGI [42]: > 100 µM
- TGI [14]: > 100 µM
- TGI [15]: > 100 µM
- TGI [16]: > 100 µM
- TGI [17]: 22.7 µM
- TGI [18]: > 100 µM
- TGI [52]: > 100 µM
- TGI [43]: 40.4 µM
- TGI [19]: 24.5 µM
- TGI [20]: > 100 µM
- TGI [44]: > 10 µM
- TGI [21]: > 100 µM
- TGI [22]: > 100 µM
- TGI [23]: 35.4 µM
- TGI [24]: > 100 µM
- TGI [25]: > 100 µM
- TGI [26]: > 100 µM
- TGI [53]: 50.5 µM
- TGI [54]: > 100 µM
- TGI [27]: 75 µM
- TGI [45]: > 100 µM
- TGI [55]: > 100 µM
- TGI [28]: > 100 µM
- TGI [29]: > 100 µM
- TGI [47]: > 100 µM
- TGI [56]: > 100 µM
- TGI [48]: > 100 µM
- TGI [57]: > 100 µM
- TGI [30]: 34.9 µM
- TGI [31]: > 100 µM
- TGI [32]: 45.9 µM
- TGI [33]: > 100 µM
- TGI [34]: > 100 µM
- TGI [36]: > 100 µM

Compound: O=C1Nc2c(ccc(Cl)c2Cl)/C1=C/c1cc(Br)c(O)c(Br)c1
- GI50 [37]: 14.5 µM
- TGI [37]: > 49.7 µM
- GI50 [49]: 5.57 µM
- TGI [49]: > 100 µM
- GI50 [38]: 6.42 µM
- TGI [38]: 43.1 µM
- GI50 [1]: 4.32 µM
- TGI [1]: 46.4 µM
- GI50 [2]: 2.71 µM
- TGI [2]: 19.8 µM
- GI50 [3]: 10 µM
- TGI [3]: > 100 µM
- GI50 [50]: 3.4 µM
- TGI [50]: > 71.9 µM
- GI50 [4]: 5.05 µM
- TGI [4]: 27.4 µM
- GI50 [5]: 4.05 µM
- TGI [5]: 23.7 µM
- GI50 [6]: 4.88 µM
- TGI [6]: 30.4 µM
- GI50 [7]: 9.86 µM
- TGI [7]: > 86.4 µM
- GI50 [39]: 3.01 µM
- TGI [39]: > 23.8 µM
- GI50 [40]: 4.91 µM
- TGI [40]: > 65.7 µM
- GI50 [8]: 9 µM
- TGI [8]: 83.2 µM
- GI50 [9]: 5.15 µM
- TGI [9]: 20.9 µM
- GI50 [10]: 4.67 µM
- TGI [10]: > 100 µM
- GI50 [11]: 4.54 µM
- TGI [11]: 97.3 µM
- GI50 [51]: 3.21 µM
- TGI [51]: 14.8 µM
- GI50 [12]: 2.6 µM
- TGI [12]: 10.2 µM
- GI50 [41]: 2.61 µM
- TGI [41]: 67.7 µM
- GI50 [13]: 14.3 µM
- TGI [13]: > 100 µM
- GI50 [42]: 2.59 µM
- TGI [42]: > 37 µM
- GI50 [14]: 14.6 µM
- TGI [14]: > 100 µM
- GI50 [15]: 8.91 µM
- TGI [15]: > 55.8 µM
- GI50 [16]: 5.23 µM
- TGI [16]: > 100 µM
- GI50 [17]: 2.53 µM
- TGI [17]: 32.4 µM
- GI50 [18]: 6.81 µM
- TGI [18]: 49.6 µM
- GI50 [52]: 6.59 µM
- TGI [52]: 32.5 µM
- GI50 [43]: 2.92 µM
- TGI [43]: 17.5 µM
- GI50 [19]: 3.06 µM
- TGI [19]: > 28.6 µM
- GI50 [20]: 3.13 µM
- TGI [20]: 16.9 µM
- GI50 [58]: 2.77 µM
- TGI [58]: > 39.3 µM
- GI50 [44]: 3.95 µM
- TGI [44]: > 65.4 µM
- GI50 [21]: 4.45 µM
- TGI [21]: > 44.9 µM
- GI50 [22]: 4.65 µM
- TGI [22]: 35.3 µM
- GI50 [23]: 2.99 µM
- TGI [23]: 12.3 µM
- GI50 [25]: 11.9 µM
- TGI [25]: > 68 µM
- GI50 [26]: 6.62 µM
- TGI [26]: 78.7 µM
- GI50 [53]: 7.07 µM
- TGI [53]: > 100 µM
- GI50 [59]: 3.9 µM
- TGI [59]: 23.3 µM
- GI50 [54]: 11.5 µM
- TGI [54]: 60.4 µM
- GI50 [27]: 3.14 µM
- TGI [27]: > 100 µM
- GI50 [45]: 4.6 µM
- TGI [45]: > 63.3 µM
- GI50 [55]: 4.37 µM
- TGI [55]: > 76.4 µM
- GI50 [28]: 10.7 µM
- TGI [28]: > 100 µM
- GI50 [46]: 20.6 µM
- TGI [46]: > 74 µM
- GI50 [29]: 7.7 µM
- TGI [29]: > 100 µM
- GI50 [47]: 4.75 µM
- TGI [47]: 40.2 µM
- GI50 [56]: 2.02 µM
- TGI [56]: 5.82 µM
- GI50 [48]: 7.32 µM
- TGI [48]: 35.2 µM
- GI50 [57]: 12 µM
- TGI [57]: > 100 µM
- GI50 [30]: 3.14 µM
- TGI [30]: 12 µM
- GI50 [31]: 6.19 µM
- TGI [31]: 26.6 µM
- GI50 [32]: 7.17 µM
- TGI [32]: 62.3 µM
- GI50 [33]: 2.49 µM
- TGI [33]: 13.3 µM
- GI50 [34]: 5.69 µM
- TGI [34]: > 100 µM
- GI50 [35]: 6.94 µM
- TGI [35]: 63.6 µM
- GI50 [36]: 2.95 µM
- TGI [36]: > 24.1 µM
